In PubChem BioAssay (NCI):
Values joined by “and” are separate entries in the source; they are usually repeats but may differ in a detail not shown here. Equal values may be shown once.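 Test compounds were applied to cells in 96-well plates for 48 hours at 5 doses. Abbreviation: GI50, concentration required for 50% inhibition of growth. Definition used: TGI = concentration required for complete inhibition of growth.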

System: HS 578T breast
Test: inhibition of tumour cell growth, NCI panel, 48 h

Compared with `O=C(Cc1ccc(F)c(Cl)c1)Nc1cc(C2(C(F)(F)F)CC2)nn1CC1CCCCC1`, `CCN1CCN(c2cc(C)c3cc(NC(=O)c4ccc(OC)c(OC)c4)ccc3n2)CC1` is 4-fold higher in GI50: 2.13 µM for the first, 8.55 µM for the second.

Compared with `COC(=O)c1c2c(c(C)[n+]([O-])c1C)C(=O)C=C(NCc1ccc(F)cc1)C2=O`, `CC(=O)Nc1ccc(-c2csc(Nc3cccc(-c4csc(C)n4)c3)n2)cc1` is 2-fold higher in GI50: 1.93 µM for the first, 3.83 µM for the second.

`CCCC(=O)Nc1cn(COC)c(C(=O)N2C[C@@H]3C[C@]34C2=CC(=O)c2[nH]cc(C)c24)n1` gave a GI50 of 12.2 µM.

Going from `O=C(Cc1ccc(F)c(Cl)c1)Nc1cc(C2(C(F)(F)F)CC2)nn1CC1CCCCC1` to `CCN1CCN(c2cc(C)c3cc(NC(=O)c4ccc(OC)c(OC)c4)ccc3n2)CC1`, the TGI rises from 9.45 µM to > 74.1 µM.

`NNC(=O)CNc1cccc(Br)c1` and `CC(=O)Nc1ccc(-c2csc(Nc3cccc(-c4csc(C)n4)c3)n2)cc1` cannot be ordered by TGI: > 100 µM for the first, > 30.4 µM for the second.

Going from `NC(N)=NCCCC(=O)O` to `COC(=O)c1c2c(c(C)[n+]([O-])c1C)C(=O)C=C(NCc1ccc(F)cc1)C2=O`, the TGI falls from > 100 µM to 6.66 µM.

`CCCC(=O)Nc1cn(COC)c(C(=O)N2C[C@@H]3C[C@]34C2=CC(=O)c2[nH]cc(C)c24)n1` was tested, and the TGI was 44.6 µM and 41.2 µM.

System: OVCAR-3 ovarian
Test: inhibition of tumour cell growth, NCI panel, 48 h

`CC1(C)OC2C(CO[Si](C)(C)C(C)(C)C)OC(n3c(I)c(C#C[Si](C)(C)C)c(=O)[nH]c3=O)C2O1` (stereo not drawn) and `C[C@@H]1C[C@@H]([C@@H](CC2CC(=O)NC(=O)C2)OC(=O)CC(=O)c2ccccc2)C(=O)[C@@H](C)C1` are within 1.5-fold of each other in GI50: 1.81 µM for the first, 1.74 µM for the second.

`CN(C)CC[C@H](CSc1ccccc1)Nc1ccc(S(=O)(=O)NC(=O)c2ccc(N3CCN(Cc4ccccc4-c4ccc(Cl)cc4)CC3)cc2)cc1[N+](=O)[O-]` and `CN1CCN(c2ccc(Nc3cc(-c4cccc(-n5ccc6cc(C7CC7)cc(F)c6c5=O)c4CO)cn(C)c3=O)nc2)CC1` are within 1.5-fold of each other in GI50: 3.92 µM for the first, 3.12 µM for the second.

Going from `COc1ccc(-c2ccc(=O)oc2C#Cc2cc(OC)c(OC)c(OC)c2)cc1O` to `CCN1CCN(c2cc(C)c3cc(NC(=O)c4ccc(OC)c(OC)c4)ccc3n2)CC1`, the GI50 rises from 0.113 µM to 0.528 µM (4.7-fold).

First: O=C(/C=C/c1ccc[nH]1)c1ccc(-n2ccc(C(F)(F)F)n2)cc1
Second: Cc1nc(Nc2cccnc2)sc1C(=O)/C=C/c1ccc(F)cc1
The GI50 of the first is 4.1-fold lower: 0.764 µM for the first, 3.14 µM for the second.

Going from `O=C(c1ccco1)c1c(C(F)(F)F)nc2ccc(Cl)cc2[n+]1[O-]` to `O=c1oc2ccc(-c3ccc(F)cc3F)cc2c(=O)n1-c1cccc(C(F)(F)F)c1`, the GI50 falls from > 100 µM to 0.784 µM.

First: Clc1cc2c(c(CSc3nc4ccccc4n4cccc34)c1)OCOC2
Second: CCOC(=O)Nc1cc2c(c(N)n1)N=C(c1ccccc1)CO2
The GI50 of the first is 220-fold higher: 7.5 µM for the first, 0.0345 µM for the second.

First: COc1ccc2nc3ccccc3c(NCc3ccc(F)cc3)c2c1
Second: COC(=O)c1c2c(c(C)[n+]([O-])c1C)C(=O)C=C(NCc1ccc(F)cc1)C2=O
The GI50 of the first is 9.2-fold higher: 2.25 µM for the first, 0.245 µM for the second.

Going from `COc1cc(N=Nc2ccc(O)c3ncccc23)c2ncccc2c1` to `CC(=O)Nc1ccc(-c2csc(Nc3cccc(-c4csc(C)n4)c3)n2)cc1`, the GI50 falls from 4.58 µM to 0.238 µM (19-fold).

Going from `CCn1c(O)c(/C=N/NC(=O)C(C)c2ccc(CC(C)C)cc2)sc1=S` (stereo not drawn) to `O=c1c(F)cn(Cc2ccc(C34CC5CC(CC(C5)C3)C4)c(O)c2)c(=O)n1Cc1ccc(C23CC4CC(CC(C4)C2)C3)c(O)c1`, the GI50 rises from 0.272 µM to 15.3 µM (56-fold).

Compared with `N=c1c2c(-c3ccccc3)c(-c3ccccc3)n(Cc3ccccc3)c2ncn1C1CCC(O)CC1` (stereo not drawn), `CC(C)(/C=C(\C#N)C(=O)N1CCC[C@@H](n2nc(-c3ccc(Oc4ccccc4)cc3F)c3c(N)ncnc32)C1)N1CCN(C2COC2)CC1` is 22-fold higher in GI50: 0.488 µM for the first, 10.5 µM for the second.

`O=C(Cc1ccc(F)c(Cl)c1)Nc1cc(C2(C(F)(F)F)CC2)nn1CC1CCCCC1` and `CCCC(=O)Nc1cn(COC)c(C(=O)N2C[C@@H]3C[C@]34C2=CC(=O)c2[nH]cc(C)c24)n1` are within 1.5-fold of each other in GI50: 3.81 µM for the first, 2.98 µM for the second.

Going from `CC1(C)OC2C(CO[Si](C)(C)C(C)(C)C)OC(n3c(I)c(C#C[Si](C)(C)C)c(=O)[nH]c3=O)C2O1` (stereo not drawn) to `C[C@@H]1C[C@@H]([C@@H](CC2CC(=O)NC(=O)C2)OC(=O)CC(=O)c2ccccc2)C(=O)[C@@H](C)C1`, the TGI rises from 3.54 µM to > 32.7 µM.

Compared with `CN(C)CC[C@H](CSc1ccccc1)Nc1ccc(S(=O)(=O)NC(=O)c2ccc(N3CCN(Cc4ccccc4-c4ccc(Cl)cc4)CC3)cc2)cc1[N+](=O)[O-]`, `CN1CCN(c2ccc(Nc3cc(-c4cccc(-n5ccc6cc(C7CC7)cc(F)c6c5=O)c4CO)cn(C)c3=O)nc2)CC1` is 2.7-fold lower in TGI: 23.6 µM for the first, 8.8 µM for the second.

Compared with `COc1ccc(-c2ccc(=O)oc2C#Cc2cc(OC)c(OC)c(OC)c2)cc1O`, `CCN1CCN(c2cc(C)c3cc(NC(=O)c4ccc(OC)c(OC)c4)ccc3n2)CC1` is 33-fold higher in TGI: 0.612 µM for the first, 20.1 µM for the second.

Compared with `O=C(/C=C/c1ccc[nH]1)c1ccc(-n2ccc(C(F)(F)F)n2)cc1`, `Cc1nc(Nc2cccnc2)sc1C(=O)/C=C/c1ccc(F)cc1` is 1.8-fold lower in TGI: 22.6 µM for the first, 12.8 µM for the second.

Compared with `O=C(c1ccco1)c1c(C(F)(F)F)nc2ccc(Cl)cc2[n+]1[O-]`, `O=c1oc2ccc(-c3ccc(F)cc3F)cc2c(=O)n1-c1cccc(C(F)(F)F)c1` is lower in TGI: > 100 µM for the first, 12.8 µM for the second.

Going from `Clc1cc2c(c(CSc3nc4ccccc4n4cccc34)c1)OCOC2` to `CCOC(=O)Nc1cc2c(c(N)n1)N=C(c1ccccc1)CO2`, the TGI falls from > 100 µM to 0.109 µM.

First: COc1ccc2nc3ccccc3c(NCc3ccc(F)cc3)c2c1
Second: COC(=O)c1c2c(c(C)[n+]([O-])c1C)C(=O)C=C(NCc1ccc(F)cc1)C2=O
The TGI of the first is 10-fold higher: 7.81 µM for the first, 0.744 µM for the second.

First: COc1cc(N=Nc2ccc(O)c3ncccc23)c2ncccc2c1
Second: CC(C)(/C=C(\C#N)C(=O)N1CCC[C@@H](n2nc(-c3ccc(Oc4ccccc4)cc3F)c3c(N)ncnc32)C1)N1CCN(C2COC2)CC1
The TGI of the first is higher: > 100 µM for the first, 23.2 µM for the second.

First: CCn1c(O)c(/C=N/NC(=O)C(C)c2ccc(CC(C)C)cc2)sc1=S (stereo not drawn)
Second: O=c1c(F)cn(Cc2ccc(C34CC5CC(CC(C5)C3)C4)c(O)c2)c(=O)n1Cc1ccc(C23CC4CC(CC(C4)C2)C3)c(O)c1
The TGI of the first is 7.4-fold lower: 3.97 µM for the first, 29.2 µM for the second.

First: N=c1c2c(-c3ccccc3)c(-c3ccccc3)n(Cc3ccccc3)c2ncn1C1CCC(O)CC1 (stereo not drawn)
Second: O=C(Cc1ccc(F)c(Cl)c1)Nc1cc(C2(C(F)(F)F)CC2)nn1CC1CCCCC1
The TGI of the first is lower: 5.63 µM for the first, > 15 µM for the second.

`CC1CC2CCCC(O)=C2C(=O)O1` (stereo not drawn) and `NNC(=O)CNc1cccc(Br)c1` cannot be ordered by TGI: > 100 µM for the first, > 100 µM for the second.

`NC(N)=NCCCC(=O)O` was tested, and the TGI was > 100 µM.

For `CCCC(=O)Nc1cn(COC)c(C(=O)N2C[C@@H]3C[C@]34C2=CC(=O)c2[nH]cc(C)c24)n1`, the TGI was 27.2 µM and 7.03 µM.
